{"source": "ChEMBL document CHEMBL5370557", "about": "“Structure-based discovery of IHMT-IDH1-053 as a potent irreversible IDH1 mutant selective inhibitor” (Eur J Med Chem, 2023)", "key": {"[1]": {"target": "T1, Isocitrate dehydrogenase [NADP] cytoplasmic (Homo sapiens, UniProt O75874, R132H)", "T1 sequence (O75874 2-414 R132H limits assumed)": "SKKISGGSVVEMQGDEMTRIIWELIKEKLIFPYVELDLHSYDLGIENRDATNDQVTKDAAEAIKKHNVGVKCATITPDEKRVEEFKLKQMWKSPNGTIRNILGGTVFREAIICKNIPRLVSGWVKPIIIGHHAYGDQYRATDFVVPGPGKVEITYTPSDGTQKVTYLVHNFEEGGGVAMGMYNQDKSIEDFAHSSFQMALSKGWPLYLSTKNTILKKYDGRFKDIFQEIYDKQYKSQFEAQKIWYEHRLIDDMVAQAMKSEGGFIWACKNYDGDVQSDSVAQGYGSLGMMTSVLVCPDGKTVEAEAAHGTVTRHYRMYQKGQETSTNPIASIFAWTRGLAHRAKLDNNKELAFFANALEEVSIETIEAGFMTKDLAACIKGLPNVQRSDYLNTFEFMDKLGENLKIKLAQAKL", "test": "Inhibition of IDH1 R132H mutant (unknown origin) expressed in Escherichia coli BL21 (DE3) assessed as NADPH consumption using alpha-KG as substrate measured after 60 mins"}, "[2]": {"target": "T1, Isocitrate dehydrogenase [NADP] cytoplasmic", "test": "Inhibition of IDH1 R132H mutant (unknown origin) expressed in HEK293T cells assessed as inhibition of 2-HG generation measured after 48 hrs by LC-MS/MS analysis", "assay_type": "cell-based"}, "[3]": {"target": "T1, Isocitrate dehydrogenase [NADP] cytoplasmic", "test": "Reversible binding affinity to IDH1 R132H mutant (unknown origin) expressed in Escherichia coli BL21 (DE3) assessed as inhibition constant"}, "[4]": {"system": "Isocitrate dehydrogenase [NADP] cytoplasmic (Homo sapiens), O75874 [R132H]", "sequence (O75874 whole entry R132H)": "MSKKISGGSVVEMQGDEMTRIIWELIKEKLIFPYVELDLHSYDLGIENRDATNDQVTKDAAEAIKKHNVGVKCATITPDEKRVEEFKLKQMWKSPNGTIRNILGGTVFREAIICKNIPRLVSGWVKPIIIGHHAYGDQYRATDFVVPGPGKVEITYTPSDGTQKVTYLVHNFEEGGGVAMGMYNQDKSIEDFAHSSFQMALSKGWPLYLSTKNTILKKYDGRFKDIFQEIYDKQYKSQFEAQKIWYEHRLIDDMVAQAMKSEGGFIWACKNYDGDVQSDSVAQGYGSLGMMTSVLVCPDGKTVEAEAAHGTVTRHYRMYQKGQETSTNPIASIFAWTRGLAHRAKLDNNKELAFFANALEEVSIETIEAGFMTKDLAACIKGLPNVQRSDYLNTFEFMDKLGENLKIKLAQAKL", "test": "Binding affinity to IDH1 R132H mutant (unknown origin) expressed in Escherichia coli BL21 (DE3) assessed as inactivation constant"}, "[5]": {"system": "Isocitrate dehydrogenase [NADP] cytoplasmic (Homo sapiens), O75874 [R132H]", "test": "Binding affinity to IDH1 R132H mutant (unknown origin) expressed in Escherichia coli BL21 (DE3) assessed as ratio of Kinact/Ki"}, "[6]": {"target": "Isocitrate dehydrogenase [NADP] cytoplasmic (Homo sapiens, UniProt O75874)", "sequence (O75874 whole entry)": "as the sequence (O75874 whole entry R132H) above, with H132R counted along it", "test": "Inhibition of wild type IDH1 (unknown origin) expressed in Escherichia coli BL21 (DE3) assessed as NADPH consumption using alpha-KG as substrate measured after 60 mins"}, "[7]": {"target": "Isocitrate dehydrogenase [NADP] cytoplasmic (Homo sapiens, UniProt O75874, R132C)", "sequence (O75874 2-414 R132C limits assumed)": "as the sequence (O75874 2-414 R132H limits assumed) above, with H131C counted along it", "test": "Inhibition of IDH1 R132C mutant (unknown origin) expressed in Escherichia coli BL21 (DE3) assessed as NADPH consumption using alpha-KG as substrate measured after 60 mins"}, "[8]": {"target": "T2, Isocitrate dehydrogenase [NADP], mitochondrial (Homo sapiens, UniProt P48735)", "T2 sequence (P48735 whole entry)": "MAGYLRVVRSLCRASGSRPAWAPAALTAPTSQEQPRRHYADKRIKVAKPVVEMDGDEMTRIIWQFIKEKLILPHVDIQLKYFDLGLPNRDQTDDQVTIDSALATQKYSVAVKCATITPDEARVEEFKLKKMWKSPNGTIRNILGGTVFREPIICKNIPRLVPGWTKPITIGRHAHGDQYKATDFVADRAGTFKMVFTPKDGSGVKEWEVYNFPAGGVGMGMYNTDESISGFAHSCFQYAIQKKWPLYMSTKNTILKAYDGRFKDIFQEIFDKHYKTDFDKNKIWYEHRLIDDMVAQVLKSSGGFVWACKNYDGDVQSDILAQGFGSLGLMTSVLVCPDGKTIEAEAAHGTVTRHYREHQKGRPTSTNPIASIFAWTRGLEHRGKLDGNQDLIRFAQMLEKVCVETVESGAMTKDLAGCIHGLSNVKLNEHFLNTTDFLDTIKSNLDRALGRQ", "test": "Inhibition of wild type IDH2 (unknown origin) expressed in Escherichia coli BL21 (DE3) assessed as NADPH consumption using alpha-KG as substrate measured after 60 mins"}, "[9]": {"target": "Isocitrate dehydrogenase [NADP], mitochondrial (Homo sapiens, UniProt P48735, R172K)", "sequence (P48735 40-452 R172K limits assumed)": "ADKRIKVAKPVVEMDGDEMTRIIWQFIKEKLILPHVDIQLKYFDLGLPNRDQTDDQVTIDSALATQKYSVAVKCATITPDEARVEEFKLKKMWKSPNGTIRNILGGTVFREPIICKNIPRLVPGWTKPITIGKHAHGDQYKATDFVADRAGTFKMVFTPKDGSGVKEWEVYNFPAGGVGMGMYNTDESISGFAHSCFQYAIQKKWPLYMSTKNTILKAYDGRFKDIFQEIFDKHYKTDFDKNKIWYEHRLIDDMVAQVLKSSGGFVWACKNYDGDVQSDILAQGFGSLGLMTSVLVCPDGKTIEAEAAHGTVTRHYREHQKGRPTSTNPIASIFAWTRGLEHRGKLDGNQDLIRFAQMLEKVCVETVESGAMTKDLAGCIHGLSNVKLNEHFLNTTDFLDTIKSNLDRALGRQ", "test": "Inhibition of IDH2 R172K mutant (unknown origin) expressed in Escherichia coli BL21 (DE3) assessed as NADPH consumption using alpha-KG as substrate measured after 60 mins"}, "[10]": {"target": "Isocitrate dehydrogenase [NADP], mitochondrial (Homo sapiens, UniProt P48735, R140Q)", "sequence (P48735 40-452 R140Q limits assumed)": "as the sequence (P48735 40-452 R172K limits assumed) above, with R101Q, K133R counted along it", "test": "Inhibition of IDH2 R140Q mutant (unknown origin) expressed in Escherichia coli BL21 (DE3) assessed as NADPH consumption using alpha-KG as substrate measured after 60 mins"}, "HT-1080": {"system": "HT-1080", "test": "Antiproliferative activity against human HT-1080 cells assessed as cell viability at 0.3 to 10 uM treated for 2 hrs followed by compound removal after 72 hrs by CellTiter-Glo assay", "assay_type": "functional, cell-based", "conditions": "dose 0.3-10 µM"}, "[11]": {"system": "Acute myeloid leukemic cell", "test": "Antiproliferative activity against human primary AML cells expressing IDH1-R132 mutant assessed as cell viability at 0.3 to 10 uM treated for 2 hrs followed by compound removal after 72 hrs by CellTiter-Glo assay", "assay_type": "functional, cell-based", "conditions": "dose 0.3-10 µM"}, "[12]": {"test": "Half life in Sprague-Dawley rat at 1 mg/kg, iv measured upto 24 hrs by LC-MS/MS analysis", "assay_type": "ADME, organism-based", "conditions": "in vivo"}, "[13]": {"test": "Tmax in Sprague-Dawley rat at 1 mg/kg, iv measured upto 24 hrs by LC-MS/MS analysis", "assay_type": "ADME, organism-based", "conditions": "in vivo"}, "[14]": {"test": "Cmax in Sprague-Dawley rat at 1 mg/kg, iv measured upto 24 hrs by LC-MS/MS analysis", "assay_type": "ADME, organism-based", "parameters": "dose 1 mg/kg, time < 24 hrs, route iv", "conditions": "in vivo"}, "[15]": {"test": "AUC (0 to t) in Sprague-Dawley rat at 1 mg/kg, iv measured upto 24 hrs by LC-MS/MS analysis", "assay_type": "ADME, organism-based", "parameters": "dose 1 mg/kg, time < 24 hrs, route iv", "conditions": "in vivo"}, "[16]": {"test": "Apparent volume of distribution in Sprague-Dawley rat at 1 mg/kg, iv measured upto 24 hrs by LC-MS/MS analysis", "assay_type": "ADME, organism-based", "conditions": "in vivo, read-out: Vz"}, "[17]": {"test": "Half life in Sprague-Dawley rat at 10 mg/kg, po measured upto 24 hrs by LC-MS/MS analysis", "assay_type": "ADME, organism-based", "conditions": "in vivo"}, "[18]": {"test": "Tmax in Sprague-Dawley rat at 10 mg/kg, po measured upto 24 hrs by LC-MS/MS analysis", "assay_type": "ADME, organism-based", "conditions": "in vivo"}, "[19]": {"test": "Cmax in Sprague-Dawley rat at 10 mg/kg, po measured upto 24 hrs by LC-MS/MS analysis", "assay_type": "ADME, organism-based", "parameters": "time < 24 hrs, dose 10 mg/kg, route po", "conditions": "in vivo"}, "[20]": {"test": "AUC (0 to t) in Sprague-Dawley rat at 10 mg/kg, po measured upto 24 hrs by LC-MS/MS analysis", "assay_type": "ADME, organism-based", "parameters": "time < 24 hrs, dose 10 mg/kg, route po", "conditions": "in vivo"}, "[21]": {"test": "Apparent volume of distribution in Sprague-Dawley rat at 10 mg/kg, po measured upto 24 hrs by LC-MS/MS analysis", "assay_type": "ADME, organism-based", "conditions": "in vivo"}, "[22]": {"test": "Clearance in Sprague-Dawley rat at 10 mg/kg, po measured upto 24 hrs by LC-MS/MS analysis", "assay_type": "ADME, organism-based", "conditions": "in vivo"}, "[23]": {"test": "Oral bioavailability in Sprague-Dawley rat at 10 mg/kg measured upto 24 hrs by LC-MS/MS analysis", "assay_type": "ADME, organism-based", "conditions": "in vivo"}, "[24]": {"test": "In vivo inhibition of IDH1 mutant activity in tumor of human HT-1080 cells xenografted in Balb/c mouse model assessed as reduction in 2-HG level at […], ip single administration measured upto 2 hrs relative to control", "assay_type": "functional"}}, "note": "pIC50, pKi: −log10 of the molar value. Calls of active or inactive are those of the source. No cut-off for these calls is given here.", "data": [{"smiles": "C=CS(=O)(=O)NC1CCN(c2ccc([C@H](C)Nc3ncc(F)c(N4C(=O)OC[C@@H]4C(C)C)n3)cc2)CC1", "values": [{"measurement": "pIC50", "setting": "[1]", "result": 8.33}, {"measurement": "pIC50", "setting": "[2]", "result": 7.55}, {"measurement": "pKi", "setting": "[3]", "result": 7.43}, {"measurement": "Kinact", "setting": "[4]", "result": 0.015, "unit": "min⁻¹"}, {"measurement": "Ratio", "setting": "[5]", "result": 0.007, "unit": "µM⁻¹ s⁻¹"}, {"measurement": "pIC50", "setting": "[6]", "result": "< 5.00"}, {"measurement": "pIC50", "setting": "[7]", "result": 6.86}, {"measurement": "pIC50", "setting": "[8]", "result": "< 5.00"}, {"measurement": "pIC50", "setting": "[9]", "result": "< 5.00"}, {"measurement": "pIC50", "setting": "[10]", "result": "< 5.00"}, {"measurement": "Activity", "setting": "HT-1080", "result": "Active"}, {"measurement": "Activity", "setting": "[11]", "result": "Active"}, {"measurement": "t1/2", "setting": "[12]", "result": 9.6, "unit": "min"}, {"measurement": "Tmax", "setting": "[13]", "result": 1.8, "unit": "min"}, {"measurement": "Cmax", "setting": "[14]", "result": 199.67, "unit": "ng/mL"}, {"measurement": "AUCt", "setting": "[15]", "result": 267.61, "unit": "ng·h/mL"}, {"measurement": "Vd", "setting": "[16]", "result": 5.39, "unit": "L/kg"}, {"measurement": "half-life", "setting": "[17]", "result": 18, "unit": "min"}, {"measurement": "Tmax", "setting": "[18]", "result": 15, "unit": "min"}, {"measurement": "Cmax", "setting": "[19]", "result": 88.1, "unit": "ng/mL"}, {"measurement": "AUCt", "setting": "[20]", "result": 36.31, "unit": "ng·h/mL"}, {"measurement": "Vz", "setting": "[21]", "result": 118.878, "unit": "L/kg"}, {"measurement": "CL/F", "setting": "[22]", "result": 260, "unit": "L/h/kg"}, {"measurement": "F", "setting": "[23]", "result": 9.26, "unit": "%"}, {"measurement": "inhibition (INH)", "setting": "[24]", "result": ">85", "unit": "%"}]}]}
